Experimental data: patent US8846704B2, “Thiopyrimidine-based compounds and uses thereof” (YM Biosciences Austraila Pty Ltd, priority 2007, dated 2014)

Key:
Assay type in all cases: biochemical
[1] = biological target: T1, BTK(h) (Homo sapiens, UniProt Q06187); experiment: Upstate KinaseProfiler enzyme assay, BTK; conditions: 500 nM compound; read-out: Percent inhibition at 500 nM BTK(h)
T1 construct: purchased Upstate Biotechnology (Dundee, UK), KinaseProfiler service
Procedure, shortened: (§1)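 First, enzymes were pre-diluted (10× working) in 20 mM MOPS, pH 7.0, supplemented with EDTA (1 mM), BSA (1 mg/ml) and glycerol (5%), plus 0.1% β-mercaptoethanol and 0.01% Brij-35. Next, they were added to the assay alongside substrates diluted in de-ionised water.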

[2] = biological target: T2, Blk(m) (Mus musculus, UniProt P16277); experiment: Upstate KinaseProfiler enzyme assay, Blk; conditions: 500 nM compound; read-out: Percent inhibition at 500 nM Blk(m)
T2 construct: purchased Upstate Biotechnology (Dundee, UK), KinaseProfiler service
T2 sequence (P16277 whole entry): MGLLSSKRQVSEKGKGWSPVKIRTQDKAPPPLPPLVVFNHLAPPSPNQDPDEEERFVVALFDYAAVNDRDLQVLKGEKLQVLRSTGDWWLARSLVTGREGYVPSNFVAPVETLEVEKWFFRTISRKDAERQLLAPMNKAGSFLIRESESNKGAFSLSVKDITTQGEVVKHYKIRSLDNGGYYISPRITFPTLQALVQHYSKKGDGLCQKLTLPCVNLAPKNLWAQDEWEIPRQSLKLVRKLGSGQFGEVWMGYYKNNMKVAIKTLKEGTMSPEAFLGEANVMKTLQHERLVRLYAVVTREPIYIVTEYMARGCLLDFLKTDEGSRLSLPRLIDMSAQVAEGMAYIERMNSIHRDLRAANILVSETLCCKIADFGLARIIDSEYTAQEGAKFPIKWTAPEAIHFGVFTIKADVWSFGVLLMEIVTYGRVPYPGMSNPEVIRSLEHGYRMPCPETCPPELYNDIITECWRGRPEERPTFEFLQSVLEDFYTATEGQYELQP
Procedure, shortened: as §1

[3] = biological target: T3, Flt 4(h) (Homo sapiens, UniProt P35916); experiment: Upstate KinaseProfiler enzyme assay, Flt 4; conditions: 500 nM compound; read-out: Percent inhibition at 500 nM Flt 4(h)
T3 construct: purchased Upstate Biotechnology (Dundee, UK), KinaseProfiler service
Method: (§2) Further enzyme assays were conducted at Upstate Biotechnology (Dundee, UK) in the KinaseProfiler™ Assay system.
(§3) The general protocol is as follows. All kinases are pre-diluted to a 10× working concentration prior to addition into the assay. The composition of the dilution buffer for the kinases is 20 mM MOPS pH 7.0, 1 mM EDTA, 0.1% β-mercaptoethanol, 0.01% Brij-35, 5% glycerol, 1 mg/ml BSA. All substrates are dissolved and diluted to working stocks in de-ionised water.

[4] = biological target: T4, KDR(h) (Homo sapiens, UniProt P35968); experiment: Upstate KinaseProfiler enzyme assay, KDR; conditions: 500 nM compound; read-out: Percent inhibition at 500 nM KDR(h)
T4 construct: purchased Upstate Biotechnology (Dundee, UK), KinaseProfiler service
T4 sequence (P35968 20-1356): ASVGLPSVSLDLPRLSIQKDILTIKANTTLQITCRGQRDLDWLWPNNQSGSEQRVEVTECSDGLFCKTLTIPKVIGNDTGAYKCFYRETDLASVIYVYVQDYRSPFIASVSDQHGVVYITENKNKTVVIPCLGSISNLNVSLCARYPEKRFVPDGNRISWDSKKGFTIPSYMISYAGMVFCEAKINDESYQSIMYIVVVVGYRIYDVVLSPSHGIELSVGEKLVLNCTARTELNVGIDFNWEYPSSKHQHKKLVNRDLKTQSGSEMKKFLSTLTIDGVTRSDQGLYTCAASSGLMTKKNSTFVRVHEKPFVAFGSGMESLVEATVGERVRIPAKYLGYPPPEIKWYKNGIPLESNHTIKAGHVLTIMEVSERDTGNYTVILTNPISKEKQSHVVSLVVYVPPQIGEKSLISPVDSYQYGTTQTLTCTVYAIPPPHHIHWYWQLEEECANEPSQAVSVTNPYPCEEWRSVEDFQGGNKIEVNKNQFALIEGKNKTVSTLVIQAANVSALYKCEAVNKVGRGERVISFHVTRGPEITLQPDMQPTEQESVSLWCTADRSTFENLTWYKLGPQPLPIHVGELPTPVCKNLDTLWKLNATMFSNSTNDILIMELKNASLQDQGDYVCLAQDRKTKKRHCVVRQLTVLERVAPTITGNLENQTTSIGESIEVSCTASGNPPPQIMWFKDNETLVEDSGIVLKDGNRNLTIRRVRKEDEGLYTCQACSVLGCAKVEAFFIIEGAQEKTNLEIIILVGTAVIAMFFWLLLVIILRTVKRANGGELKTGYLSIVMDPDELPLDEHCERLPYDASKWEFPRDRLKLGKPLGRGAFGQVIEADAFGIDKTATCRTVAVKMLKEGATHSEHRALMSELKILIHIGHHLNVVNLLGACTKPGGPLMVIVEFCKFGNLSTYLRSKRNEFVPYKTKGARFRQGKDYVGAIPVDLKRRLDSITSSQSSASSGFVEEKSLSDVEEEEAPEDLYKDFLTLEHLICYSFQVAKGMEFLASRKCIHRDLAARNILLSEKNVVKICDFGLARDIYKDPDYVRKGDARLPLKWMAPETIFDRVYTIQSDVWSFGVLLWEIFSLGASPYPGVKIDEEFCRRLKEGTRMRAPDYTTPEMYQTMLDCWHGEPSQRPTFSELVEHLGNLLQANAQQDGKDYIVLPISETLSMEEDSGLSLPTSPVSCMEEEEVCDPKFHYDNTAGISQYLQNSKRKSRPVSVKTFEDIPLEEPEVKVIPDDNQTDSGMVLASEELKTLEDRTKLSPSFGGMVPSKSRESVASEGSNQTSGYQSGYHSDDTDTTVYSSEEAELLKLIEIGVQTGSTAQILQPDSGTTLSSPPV
Procedure, shortened: as §1

[5] = biological target: T5, Flt 1(h) (Homo sapiens, UniProt P17948); experiment: Upstate KinaseProfiler enzyme assay, Flt 1; conditions: 500 nM compound; read-out: Percent inhibition at 500 nM Flt 1(h)
T5 construct: purchased Upstate Biotechnology (Dundee, UK), KinaseProfiler service
T5 sequence (P17948 27-1338): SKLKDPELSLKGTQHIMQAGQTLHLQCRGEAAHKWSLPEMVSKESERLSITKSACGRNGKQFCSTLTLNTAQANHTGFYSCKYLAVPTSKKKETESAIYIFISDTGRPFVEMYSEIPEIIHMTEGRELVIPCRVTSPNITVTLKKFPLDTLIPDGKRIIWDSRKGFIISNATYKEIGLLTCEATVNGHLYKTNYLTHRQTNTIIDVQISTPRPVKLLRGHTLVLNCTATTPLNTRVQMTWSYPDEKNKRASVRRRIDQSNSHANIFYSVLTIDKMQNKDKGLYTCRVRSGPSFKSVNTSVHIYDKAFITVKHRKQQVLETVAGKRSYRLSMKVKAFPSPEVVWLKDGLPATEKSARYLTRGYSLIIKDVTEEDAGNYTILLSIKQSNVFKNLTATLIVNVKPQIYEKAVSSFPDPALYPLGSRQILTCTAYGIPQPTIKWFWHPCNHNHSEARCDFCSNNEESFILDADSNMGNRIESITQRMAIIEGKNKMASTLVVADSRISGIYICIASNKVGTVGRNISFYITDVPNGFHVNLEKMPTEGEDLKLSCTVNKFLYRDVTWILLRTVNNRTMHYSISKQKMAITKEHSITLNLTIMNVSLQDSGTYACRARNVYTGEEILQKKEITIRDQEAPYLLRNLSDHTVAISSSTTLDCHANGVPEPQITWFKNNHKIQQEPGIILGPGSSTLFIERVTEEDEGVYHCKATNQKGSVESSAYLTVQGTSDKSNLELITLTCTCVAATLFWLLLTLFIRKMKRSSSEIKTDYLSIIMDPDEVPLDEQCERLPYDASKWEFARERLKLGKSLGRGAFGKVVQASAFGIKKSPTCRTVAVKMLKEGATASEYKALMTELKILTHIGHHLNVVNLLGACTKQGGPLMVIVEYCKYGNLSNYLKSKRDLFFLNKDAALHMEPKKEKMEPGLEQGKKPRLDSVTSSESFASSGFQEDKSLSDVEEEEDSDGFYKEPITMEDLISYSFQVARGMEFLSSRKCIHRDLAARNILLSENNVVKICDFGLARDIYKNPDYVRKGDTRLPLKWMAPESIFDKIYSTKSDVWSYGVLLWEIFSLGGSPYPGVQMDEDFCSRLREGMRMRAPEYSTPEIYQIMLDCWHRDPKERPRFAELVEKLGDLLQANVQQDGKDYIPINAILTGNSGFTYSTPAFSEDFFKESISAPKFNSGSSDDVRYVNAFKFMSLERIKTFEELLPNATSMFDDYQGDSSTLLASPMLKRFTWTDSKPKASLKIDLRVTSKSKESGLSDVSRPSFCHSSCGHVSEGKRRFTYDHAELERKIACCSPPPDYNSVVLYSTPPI
Method: as §2, §3

[6] = biological target: T6, Bmx(h) (Homo sapiens, UniProt P51813); experiment: Upstate KinaseProfiler enzyme assay, Bmx; conditions: 500 nM compound; read-out: Percent inhibition at 500 nM Bmx(h)
T6 construct: purchased Upstate Biotechnology (Dundee, UK), KinaseProfiler service
T6 sequence (P51813 1-675): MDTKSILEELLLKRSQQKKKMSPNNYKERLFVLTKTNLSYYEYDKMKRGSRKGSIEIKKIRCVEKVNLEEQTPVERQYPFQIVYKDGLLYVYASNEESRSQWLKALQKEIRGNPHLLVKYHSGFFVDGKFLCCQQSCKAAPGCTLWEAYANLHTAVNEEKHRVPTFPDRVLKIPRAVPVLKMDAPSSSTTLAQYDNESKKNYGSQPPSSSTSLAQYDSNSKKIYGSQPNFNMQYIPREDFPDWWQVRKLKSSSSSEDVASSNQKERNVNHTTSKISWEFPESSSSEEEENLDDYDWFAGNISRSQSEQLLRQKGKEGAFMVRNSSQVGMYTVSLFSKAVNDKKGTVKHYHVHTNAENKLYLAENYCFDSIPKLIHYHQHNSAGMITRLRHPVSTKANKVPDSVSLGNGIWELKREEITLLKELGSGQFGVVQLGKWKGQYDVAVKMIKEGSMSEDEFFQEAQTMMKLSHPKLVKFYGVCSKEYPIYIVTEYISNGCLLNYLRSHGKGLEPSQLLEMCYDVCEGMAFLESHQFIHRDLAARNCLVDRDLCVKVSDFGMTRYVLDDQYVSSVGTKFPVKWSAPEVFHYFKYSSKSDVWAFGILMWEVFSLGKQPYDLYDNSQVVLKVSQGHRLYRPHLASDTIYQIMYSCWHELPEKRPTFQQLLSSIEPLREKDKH
Procedure, shortened: as §1

T1 sequence (Q06187 whole entry): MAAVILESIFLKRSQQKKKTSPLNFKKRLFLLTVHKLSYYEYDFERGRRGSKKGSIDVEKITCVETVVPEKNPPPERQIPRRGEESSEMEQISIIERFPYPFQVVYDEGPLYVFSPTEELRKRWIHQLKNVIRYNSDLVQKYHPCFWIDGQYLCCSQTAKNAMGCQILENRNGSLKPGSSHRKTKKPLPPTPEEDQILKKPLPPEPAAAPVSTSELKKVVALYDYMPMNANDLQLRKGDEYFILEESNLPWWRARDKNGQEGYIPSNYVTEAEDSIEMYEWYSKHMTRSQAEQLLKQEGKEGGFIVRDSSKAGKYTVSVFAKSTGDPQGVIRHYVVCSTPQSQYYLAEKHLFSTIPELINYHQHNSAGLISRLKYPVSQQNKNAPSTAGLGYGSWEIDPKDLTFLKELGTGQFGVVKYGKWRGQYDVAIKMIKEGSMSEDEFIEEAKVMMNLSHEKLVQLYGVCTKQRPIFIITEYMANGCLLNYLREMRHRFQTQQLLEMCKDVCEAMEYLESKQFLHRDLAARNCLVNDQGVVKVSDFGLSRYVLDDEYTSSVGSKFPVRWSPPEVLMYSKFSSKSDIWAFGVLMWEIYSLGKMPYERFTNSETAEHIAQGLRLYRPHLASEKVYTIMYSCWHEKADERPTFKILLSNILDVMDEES

| Compound | inhibition at 0.5 µM [1] | inhibition at 0.5 µM [2] | inhibition at 0.5 µM [3] | inhibition at 0.5 µM [4] | inhibition at 0.5 µM [5] | inhibition at 0.5 µM [6] |
| --- | --- | --- | --- | --- | --- | --- |
| C=CC(=O)Nc1ccc(Sc2nc(Nc3ccc(OCCN4CCOCC4)cc3)ncc2C)cc1 [Compound 290, N-(4-(5-methyl-2-(4-(2-morpholinoethoxy)phenylao)pyrimidin-4-ylthio)phenyl)acrylamide] | 94% | 97% | 100% | 95% | 100% | 97% |
| C=CC(=O)Nc1ccc(Sc2nc(Nc3cccc(NS(C)(=O)=O)c3)ncc2C)cc1 [Compound 288, N-(4-(5-methyl-2-(3-(methylsulfonamido)phenylao)pyrimidin-4-ylthio)phenyl)acrylamide] | 98% | 99% | 100% | 94% | 100% | 100% |
| C=CC(=O)Nc1ccc(Sc2nc(Nc3ccc(N4CCC(CO)CC4)cc3)ncc2C)cc1 [Compound 286, N-(4-(2-(4-(4-(hydroxymethyl)piperidin-1-yl)phenylao)-5-methylpyrimidin-4-ylthio)phenyl)acrylamide] | 74% | 88% | 100% | 94% | 98% | 95% |
| N#Cc1nnnn1Cc1ccc(Sc2ccnc(Nc3ccc(N4CCOCC4)cc3)n2)cc1 [Compound 155, 1-(4-(2-(4-morpholinophenylao)pyrimidin-4-ylthio)benzyl)-1H-tetrazole-5-carbonitrile] | 81% | 40% | 99% | 98% | 74% | 86% |
| C=CC(=O)Nc1ccc(Sc2nc(Nc3ccc(N4CCN(C)CC4)cc3)ncc2C)cc1 [Compound 239, N-(4-(5-methyl-2-(4-(4-methylpiperazin-1-yl)phenylao)pyrimidin-4-ylthio)phenyl)acrylamide] | 97% | 99% | 100% | 96% | 100% | 99% |
| O=C(/C=C/Cl)Nc1cccc(Sc2ccnc(Nc3ccc(N4CCOCC4)cc3)n2)c1 [Compound 340, (E)-3-chloro-N-(3-(2-(4-morpholinophenylao)pyrimidin-4-ylthio)phenyl)acrylamide] | 97% | 99% | 95% | 94% | 100% | 92% |
| Cc1cnc(Nc2ccc(N3CCOCC3)cc2)nc1Sc1ccc(N2C(=O)CSCC2=O)cc1 [Compound 231, 4-(4-(5-methyl-2-(4-morpholinophenylao)pyrimidin-4-ylthio)phenyl)thiomorpholine-3,5-dione] | 91% | 82% | 100% | 99% | 95% | 99% |
| C=CC(=O)N(C)c1ccc(Sc2nc(Nc3ccc(N4CCOCC4)cc3)ncc2C)cc1 [Compound 173, N-methyl-N-(4-(5-methyl-2-(4-morpholinophenylao)pyrimidin-4-ylthio)phenyl)acrylamide] | 93% | 93% | 98% | 96% | 95% | 94% |
| C=CC(=O)Nc1ccc(Sc2nc(Nc3cccc(N4CCN(C)CC4)c3)ncc2C)cc1 [Compound 243, N-(4-(5-methyl-2-(3-(4-methylpiperazin-1-yl)phenylao)pyrimidin-4-ylthio)phenyl)acrylamide] | 97% | 99% | 100% | 97% | 100% | 96% |
| C=CC(=O)Nc1ccc(Sc2nc(Nc3cccc(N4CCOCC4)c3)ncc2F)cc1 [Compound 267, N-(4-(5-fluoro-2-(3-morpholinophenylao)pyrimidin-4-ylthio)phenyl)acrylamide] | 94% | 96% | 100% | 94% | 100% | 89% |
| N#Cc1nnn(Cc2ccc(Sc3ccnc(Nc4ccc(N5CCOCC5)cc4)n3)cc2)n1 [Compound 156, 2-(4-(2-(4-morpholinophenylao)pyrimidin-4-ylthio)benzyl)-2H-tetrazole-5-carbonitrile] | 81% | 41% | 94% | 97% | 80% | 83% |
| C=CC(=O)Nc1ccc(Sc2nc(Nc3ccc(C4CCN(C)CC4)cc3)ncc2C)cc1 [Compound 246, N-(4-(5-methyl-2-(4-(1-methylpiperidin-4-yl)phenylao)pyrimidin-4-ylthio)phenyl)acrylamide] | 97% | 97% | 100% | 93% | 100% | 98% |
| C=CC(=O)Nc1ccc(Sc2nc(Nc3ccc(OC)c(NS(C)(=O)=O)c3)ncc2C)cc1 [Compound 293, N-(4-(2-(4-methoxy-3-(methylsulfonamido)phenylao)-5-methylpyrimidin-4-ylthio)phenyl)acrylamide] | 55% | 30% | 100% | 95% | 79% | 79% |
